Measurements reported in patent publication US20240208968A1, “ALPHA V BETA 6 AND ALPHA V BETA 1 INTEGRIN INHIBITORS AND USES THEREOF” (DiCE Molecules SV, Inc., priority 2021, published 2024).
Counter-ions that a name gives are not always drawn.

Legend:
αvβ1 = αvβ1 (Homo sapiens, UniProt P05556+P06756); experiment: Solid Phase Integrin αvβ1 Assay; type: binding
Procedure, shortened: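 Compound competes for αvβ1 binding to immobilized TGFb1-LAP (1 µg/mL coat) in Mn2+ (1 mM MnCl2), 2% BSA binding buffer over 90 min at room temperature, integrin added at 0.2 µg/mL. Read-out: streptavidin-HRP/TMB; IC50 from Levenberg-Marquardt four-parameter fit.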

αvβ6 = αvβ6 (Homo sapiens, UniProt P06756+P18564); experiment: Solid Phase Integrin αvβ6 Assay; type: binding
Procedure, shortened: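 Inhibition of αvβ6 binding to immobilized recombinant TGFb1-LAP (1 μg/mL coating), 1 h at room temperature with 1 mM MnCl2 in BSA/TBST buffer, integrin diluted to 0.2 μg/mL before addition. Streptavidin-HRP/TMB read-out; four-parameter logistic fitting gave IC50.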

Chain of αvβ6 (P06756 31-992 limits assumed): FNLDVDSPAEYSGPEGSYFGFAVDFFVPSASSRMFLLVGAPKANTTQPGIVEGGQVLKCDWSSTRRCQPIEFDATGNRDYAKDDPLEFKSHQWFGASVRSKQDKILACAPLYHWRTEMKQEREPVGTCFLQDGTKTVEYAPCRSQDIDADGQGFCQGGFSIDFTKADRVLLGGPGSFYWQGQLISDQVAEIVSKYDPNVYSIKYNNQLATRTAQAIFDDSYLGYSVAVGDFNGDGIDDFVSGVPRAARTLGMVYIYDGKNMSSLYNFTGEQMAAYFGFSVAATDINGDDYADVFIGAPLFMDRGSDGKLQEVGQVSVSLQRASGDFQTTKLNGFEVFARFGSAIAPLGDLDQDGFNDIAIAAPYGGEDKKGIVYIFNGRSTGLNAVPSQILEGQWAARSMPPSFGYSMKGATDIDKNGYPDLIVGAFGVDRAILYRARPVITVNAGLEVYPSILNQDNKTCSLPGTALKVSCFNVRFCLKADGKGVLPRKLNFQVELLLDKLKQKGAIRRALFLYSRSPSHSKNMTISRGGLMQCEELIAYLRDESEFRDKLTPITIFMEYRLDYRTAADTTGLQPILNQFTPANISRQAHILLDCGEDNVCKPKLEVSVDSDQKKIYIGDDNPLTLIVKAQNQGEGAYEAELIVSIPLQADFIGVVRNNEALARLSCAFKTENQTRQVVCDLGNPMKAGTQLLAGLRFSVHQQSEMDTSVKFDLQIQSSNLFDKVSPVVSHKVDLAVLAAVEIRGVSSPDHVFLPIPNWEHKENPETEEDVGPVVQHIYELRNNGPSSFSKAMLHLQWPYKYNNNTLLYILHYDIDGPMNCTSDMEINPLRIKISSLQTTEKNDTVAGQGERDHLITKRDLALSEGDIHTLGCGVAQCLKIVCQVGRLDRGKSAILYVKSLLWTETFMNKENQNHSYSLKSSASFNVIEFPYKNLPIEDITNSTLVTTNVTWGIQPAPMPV
Chain of αvβ6 (P18564 22-707 limits assumed): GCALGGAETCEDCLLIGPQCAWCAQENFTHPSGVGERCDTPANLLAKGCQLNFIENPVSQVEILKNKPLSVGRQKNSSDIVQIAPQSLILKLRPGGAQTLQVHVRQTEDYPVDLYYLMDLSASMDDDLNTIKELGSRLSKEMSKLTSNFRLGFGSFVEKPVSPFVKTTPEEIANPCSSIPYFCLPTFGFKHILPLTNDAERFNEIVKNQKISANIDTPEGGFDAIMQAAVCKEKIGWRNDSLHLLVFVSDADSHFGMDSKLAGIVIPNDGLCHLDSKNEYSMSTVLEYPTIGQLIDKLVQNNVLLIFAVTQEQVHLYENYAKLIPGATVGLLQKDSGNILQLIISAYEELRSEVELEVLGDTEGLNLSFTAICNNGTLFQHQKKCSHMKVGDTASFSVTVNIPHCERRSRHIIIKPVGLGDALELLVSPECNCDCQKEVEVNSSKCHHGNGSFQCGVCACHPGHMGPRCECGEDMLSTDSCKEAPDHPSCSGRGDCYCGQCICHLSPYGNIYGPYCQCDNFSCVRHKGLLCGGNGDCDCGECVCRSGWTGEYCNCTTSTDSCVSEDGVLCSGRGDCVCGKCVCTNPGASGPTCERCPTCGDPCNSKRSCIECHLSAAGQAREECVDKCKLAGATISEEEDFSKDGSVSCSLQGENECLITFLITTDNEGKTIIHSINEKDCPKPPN
Chain of αvβ1 (P06756 31-992 limits assumed): as the sequence (P06756 31-992 limits assumed) above
Chain of αvβ1 (P05556 21-728 limits assumed): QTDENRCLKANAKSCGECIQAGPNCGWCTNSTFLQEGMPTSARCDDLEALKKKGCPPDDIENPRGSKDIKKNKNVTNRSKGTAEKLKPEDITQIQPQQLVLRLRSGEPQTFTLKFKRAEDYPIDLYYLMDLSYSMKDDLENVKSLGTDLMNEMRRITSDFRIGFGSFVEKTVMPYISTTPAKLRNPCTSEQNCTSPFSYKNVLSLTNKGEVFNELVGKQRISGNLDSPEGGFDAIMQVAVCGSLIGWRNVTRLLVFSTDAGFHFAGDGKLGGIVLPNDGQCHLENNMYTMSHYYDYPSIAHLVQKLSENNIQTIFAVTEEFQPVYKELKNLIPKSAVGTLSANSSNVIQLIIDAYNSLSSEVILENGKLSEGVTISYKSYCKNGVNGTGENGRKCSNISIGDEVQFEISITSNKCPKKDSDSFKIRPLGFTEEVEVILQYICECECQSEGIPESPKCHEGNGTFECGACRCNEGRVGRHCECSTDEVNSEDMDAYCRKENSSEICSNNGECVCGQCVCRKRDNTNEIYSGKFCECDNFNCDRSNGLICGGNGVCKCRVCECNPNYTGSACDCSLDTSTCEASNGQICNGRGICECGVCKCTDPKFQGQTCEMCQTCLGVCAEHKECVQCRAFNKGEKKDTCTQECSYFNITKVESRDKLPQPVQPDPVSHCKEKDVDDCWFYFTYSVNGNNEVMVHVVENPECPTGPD

Compound | IC50 (αvβ1) | IC50 (αvβ6)
O=C(O)C[C@@H](CO[C@@H]1CCCN(CCCc2ccc3c(n2)NCCC3)C1)c1cccc(N2C[C@@H]3CC[C@H]2CO3)c1 [Compound 464] | 100 to 1000 nM | 100 to 1000 nM
O=C(NC[C@@H](C(=O)O)c1cccc2cnn([C@H]3CCOC3)c12)[C@@H]1CCCN(CCCc2ccc3c(n2)NCCC3)C1 [Compound 320] | > 1000 nM | > 1000 nM
O=C(NC[C@H](C(=O)O)c1cccc2c1CCC2)[C@@H]1CCCN(CCCc2ccc3c(n2)NCCC3)C1 [Compound 560] | 100 to 1000 nM | 100 to 1000 nM
C[C@@H]1C[C@@H](C(=O)NC[C@H](C(=O)O)c2ccc3ccccc3c2)CN(CCCc2ccc3c(n2)NCCC3)C1 [Compound 632] | 100 to 1000 nM | 100 to 1000 nM
O=C(O)[C@@H](CO[C@@H]1CCCN(Cc2ccc3c(n2)NCCC3)C1)c1ccccc1 [Compound 389] | > 1000 nM | > 1000 nM
O=C(O)[C@@H](CO[C@@H]1CCCN(Cc2ccc3c(n2)NCCC3)C1)NC(=O)C12CCC(CC1)CC2 [Compound 403] | > 1000 nM | > 1000 nM
O=C(O)C[C@@H](O[C@@H]1CCCN(CCCCc2ccc3c(n2)NCCC3)C1)c1ccccc1 [Compound 391] | > 1000 nM | > 1000 nM
O=C(NC[C@H](C(=O)O)c1cccc(C2CC2)c1)[C@@H]1CCCN(CCCc2ccc3c(n2)NCCC3)C1 [Compound 258-A, 2-(3-cyclopropylphenyl)-3-((R)-1-(3-(5,6,7,8-tetrahydro-1,8-naphthyridin-2-yl)propyl)piperidine-3-carboxamido)propanoic acid] | 100 to 1000 nM | 100 to 1000 nM
O=C(O)C[C@H](CC(=O)N[C@@H]1CCN(CCCCc2ccc3c(n2)NCCC3)C1)c1ccccc1 [Compound 415] | 100 to 1000 nM | 100 to 1000 nM
O=C(O)C[C@H](NC[C@@H]1CCCN(CCCc2ccc3c(n2)NCCC3)C1)c1ccccc1 [Compound 292, (S)-3-phenyl-3-(S)-1-(3-(5,6,7,8-tetrahydro-1,8-naphthyridin-2-yl)propyl)piperidin-3-yl)methyl)amino)propanoic acid hydrochloride] | > 1000 nM | > 1000 nM
O=C(O)C[C@@H](CO[C@@H]1CCCN(CCCc2ccc3c(n2)NCCC3)C1)c1ccccc1-c1ccccc1 [Compound 461] | > 1000 nM | > 1000 nM
O=C(O)[C@H](CO[C@@H]1CCCN(CCCc2ccc3c(n2)NCCC3)C1)c1ccccc1 [Compound 350] | > 1000 nM | > 1000 nM
C[C@H]1C[C@@H](C(=O)NC[C@@H](C(=O)O)c2cccc(-c3ccccc3)c2)CN(CCCc2ccc3c(n2)NCCC3)C1 [Compound 646] | > 1000 nM | 100 to 1000 nM
O=C(CC[C@@H](C(=O)O)c1ccccc1)N[C@H]1CCN(CCCCc2ccc3c(n2)NCCC3)C1 [Compound 425] | > 1000 nM | > 1000 nM
O=C(NC[C@H](C(=O)O)c1cccc(C(F)(F)F)c1)[C@@H]1CCCN(CCCc2ccc3c(n2)NCCC3)C1 [Compound 252-B, 3-((R)-1-(3-(5,6,7,8-tetrahydro-1,8-naphthyridin-2-yl)propyl)piperidine-3-carboxamido)-2-(3-(trifluoromethyl)phenyl)propanoic acid] | > 1000 nM | < 100 nM
O=C(O)C[C@H](NC(=O)[C@@H]1CCCN(CCCc2ccc3c(n2)NCCC3)C1)c1ccc(C2CC2)cc1 [Compound 557] | > 1000 nM | 100 to 1000 nM
O=C(NC[C@H](NC(=O)C1(c2ccccc2)CC1)C(=O)O)[C@@H]1CCCN(CCCc2ccc3c(n2)NCCC3)C1 [Compound 547] | < 100 nM | < 100 nM
O=C(O)C[C@H](NC(=O)[C@@H]1CCCN(CCc2ccc3c(n2)NCCC3)C1)c1ccccc1 [Compound 290, (S)-3-phenyl-3-((R)-1-(2-(5,6,7,8-tetrahydro-1,8-naphthyridin-2-yl)ethyl)piperidine-3-carboxamido)propanoic acid] | > 1000 nM | 100 to 1000 nM
O=C(N[C@H](CCO[C@@H]1CCCN(CCCc2ccc3c(n2)NCCC3)C1)C(=O)O)c1c(F)cccc1F [Compound 480] | 100 to 1000 nM | 100 to 1000 nM
O=C(O)C[C@H](CN[C@@H]1CCCN(CCCc2ccc3c(n2)NCCC3)C1)c1ccccc1 [Compound 295, (S)-3-phenyl-4-(((R)-1-(3-(5,6,7,8-tetrahydro-1,8-naphthyridin-2-yl)propyl)piperidin-3-yl)amino)butanoic acid] | < 100 nM | < 100 nM
Cc1cc(C)n(-c2cccc([C@@H](CNC(=O)[C@@H]3CCCN(CCCc4ccc5c(n4)NCCC5)C3)C(=O)O)c2)n1 [Compound 257-B, 2-(3-(3,5-dimethyl-1H-pyrazol-1-yl)phenyl)-3-((R)-1-(3-(5,6,7,8-tetrahydro-1,8-naphthyridin-2-yl)propyl)piperidine-3-carboxamido)propanoic acid] | < 100 nM | < 100 nM
O=C(O)C[C@H](NC(=O)[C@@H]1CCCN(CCCc2ccc3c(n2)NCCC3)C1)c1cccc2c1CCO2 [Compound 615] | < 100 nM | < 100 nM
O=C(O)[C@H](CCO[C@@H]1CCCN(CCCc2ccc3c(n2)NCCC3)C1)Nc1ncnc2sccc12 [Compound 472] | > 1000 nM | < 100 nM

Further lines, results first:

IC50 (αvβ1) | IC50 (αvβ6) | Compound
< 100 nM | < 100 nM | O=C(O)C[C@H](NC(=O)[C@@H]1CCCN(CCCc2ccc3c(n2)NCCC3)C1)c1ccc2c(c1)OCO2 [Compound 214, (S)-3-(benzo[d][1,3]dioxol-5-yl)-3-((R)-1-(3-(5,6,7,8-tetrahydro-1,8-naphthyridin-2-yl)propyl)piperidine-3-carboxamido)propanoic acid]
< 100 nM | < 100 nM | O=C(N[C@@H](CCO[C@@H]1CCCN(CCCc2ccc3c(n2)NCCC3)C1)C(=O)O)c1cc(Cl)cc(Cl)c1 [Compound 488]
< 100 nM | 100 to 1000 nM | O=C(O)C[C@@H](CC[C@@H]1CCCN(CCCc2ccc3c(n2)NCCC3)C1)c1ccccc1 [Compound 298-A, 3-phenyl-5-((R)-1-(3-(5,6,7,8-tetrahydro-1,8-naphthyridin-2-yl)propyl)piperidin-3-yl)pentanoi c acid]
< 100 nM | < 100 nM | O=C(O)C[C@H](NC(=O)[C@@H]1CCCN(CCCc2ccc3c(n2)NCCC3)C1)c1cccc(C2CC2)c1 [Compound 224, (S)-3-(3-Cyclopropylphenyl)-3-((R)-1-(3-(5,6,7,8-Tetrahydro-1,8-Naphthyridin-2-YI)Propyl)Piperidine-3-Carboxamido)Propanoic Acid hydrochloride]
< 100 nM | < 100 nM | O=C(O)CC(NC(=O)[C@@H]1CCCN(CCCc2ccc3c(n2)NCCC3)C1)c1cnn(-c2ccccc2)c1 (stereo partly drawn) [Compound 233, 3-(1-phenyl-1H-pyrazol-4-yl)-3-((R)-1-(3-(5,6,7,8-tetrahydro-1,8-naphthyridin-2-yl)propyl)piperidine-3-carboxamido)propanoic acid hydrochloride]
< 100 nM | < 100 nM | O=C(NC[C@H](Nc1ccnc2ccccc12)C(=O)O)[C@@H]1CCCN(CCCc2ccc3c(n2)NCCC3)C1 [Compound 273, (S)-2-(quinolin-4-ylamino)-3-((R)-1-(3-(5,6,7,8-tetrahydro-1,8-naphthyridin-2-yl)propyl)piperidine-3-carboxamido)propanoic acid]
< 100 nM | > 1000 nM | O=C(O)C[C@@H](CO[C@@H]1CCCN(CCCCc2ccc3c(n2)NCCC3)C1)c1ccccc1 [Compound 358]
< 100 nM | < 100 nM | Nc1nnc(C(=O)N[C@@H](CNC(=O)[C@@H]2CCCN(CCCc3ccc4c(n3)NCCC4)C2)C(=O)O)o1 [Compound 348]
< 100 nM | < 100 nM | O=C(NC[C@H](Nc1ncnc2c(C(F)(F)F)cccc12)C(=O)O)[C@@H]1CCCN(CCCc2ccc3c(n2)NCCC3)C1 [Compound 562]
< 100 nM | < 100 nM | O=C(O)C[C@H](NC(=O)[C@@H]1CCCN(CCCc2ccc3c(n2)NCCC3)C1)c1cccc(N2CCOCC2)c1 [Compound 229, (S)-3-(3-morpholinophenyl)-3-((R)-1-(3-(5,6,7,8-tetrahydro-1,8-naphthyridin-2-yl)propyl)piperidine-3-carboxamido)propanoic acid hydrochloride]
< 100 nM | < 100 nM | O=C(NC[C@H](C(=O)O)c1cccc2nn(CC3CC3)cc12)[C@@H]1CCCN(CCCc2ccc3c(n2)NCCC3)C1 [Compound 317]
< 100 nM | < 100 nM | O=C(O)C[C@H](NC(=O)[C@@H]1CCCN(CCCc2ccc3c(n2)NCCC3)C1)c1cccc(N2CC3CCC2CO3)c1 (single isomer, unassigned) [Compound 241-A]
< 100 nM | < 100 nM | CC1(C)CCCN(c2cccc([C@H](CC(=O)O)NC(=O)[C@@H]3CCCN(CCCc4ccc5c(n4)NCCC5)C3)c2)C1 [Compound 230, (S)-3-(3-(3,3-dimethylpiperidin-1-yl)phenyl)-3-((R)-1-(3-(5,6,7,8-tetrahydro-1,8-naphthyridin-2-yl)propyl)piperidine-3-carboxamido)propanoic acid]
< 100 nM | < 100 nM | O=C(NC[C@@H](Nc1cccc(C2CC(F)(F)C2)c1)C(=O)O)[C@@H]1CCCN(CCCc2ccc3c(n2)NCCC3)C1 [Compound 589]
< 100 nM | 100 to 1000 nM | O=C(CC[C@H](NC(=O)[C@@H]1CCCN1S(=O)(=O)c1ccccc1)C(=O)O)N[C@H]1CCN(C(=O)CCCc2ccc3c(n2)NCCC3)C1 [Compound 439]
< 100 nM | < 100 nM | O=C(O)C[C@@H](NC(=O)[C@@H]1CCCN(CCCc2ccc3c(n2)NCCC3)C1)c1cccc(C2CC2)c1F [Compound 344]
